Assay [1] has as its system APRE-19 cells and human-tissue-derived RPE cells. The experiment in a line: P-K8 immunostaining: reorganization of K8 around the nucleus under paraquat oxidative stress. Type of assay: cell-based. From the text:
The ARPE-19 cells are cell lines that have been genetically engineered for infinite proliferation for experimental use. However, as the human-tissue-derived RPE cells were obtained by culturing RPE tissue isolated from the human eye without any genetic engineering they were used for experiments under conditions similar to those of human RPE.
Thereafter, P-K8 (green fluorescence) of the cells was immunostained (Abcam; ab32579). The nucleus was stained (Invitrogen; T3605) using TOPRO-3 (blue fluorescence) (FIG. 2C).
P-K8 (green fluorescence) of the cells was immunostained (FIG. 4B).
(§1) The same procedures as in Example 3 were performed, and 10 μM gefitinib was used in lieu of 50 nM trametinib.

Assay [2] concerns keratin 8 (K8) phosphorylation. Briefly: Western blotting of P-ERK1/2 and P-K8 in paraquat-treated retinal pigment epithelial cells. Type of assay: cell-based, human. How it is done: In the bar graph analyzed from the image of western blotting, the expression levels of P-ERK and P-K8 were calculated (FIG. 2B).
In the bar graph analyzed from the image of western blotting, the expression levels of P-ERK and P-K8 were calculated (FIG. 4A).
as §1

The test system of assay [3] is APRE-19 cells and human-tissue-derived RPE cells. Briefly: E-cadherin / vimentin immunostaining: epithelial-mesenchymal transition under paraquat oxidative stress. Type of assay: cell-based. The following applies: for E-cadherin expression / vimentin filaments: APRE-19 and human-tissue-derived RPE cells. How it is done:
E-cadherin (green fluorescence) and vimentin (red fluorescence) in the cells were immunostained (cell signaling; 7832s). The nucleus was stained using TOPRO-3 (blue fluorescence) (FIG. 3A).
Thereafter, E-cadherin (green fluorescence) and vimentin (red fluorescence) in the cells were immunostained. The nucleus was visualized using TOPRO-3 (blue fluorescence) (FIG. 4C).
as §1

The test system of the next assay is mouse retinal cells. Briefly: NaIO3-induced retinal degeneration in mouse, ZO-1 immunohistochemical analysis. In kind it is in vivo. The following applies: 20 mg/kg NaIO3 intravenously, 10 mg/kg PD98059, sacrificed 2 weeks after administration, FIG. 3C. How it is done: 7- to 9-week-old mouse retinal cells were subjected to immunohistochemical analysis (Abcam; ab59720) for a tight junction marker ZO-1 (green fluorescence). A saline-treated group was a control group with intravenous administration of 0.9% NaCl. A mouse group administered intravenously with 20 mg/kg of NaIO3 was selectively treated with 10 mg/kg of PD98059. Animal groups were sacrificed 2 weeks after intravenous administration. The fluorescence images were obtained through a confocal microscope (FIG. 3C).

The test system of a further assay is ARPE-19 cells. Briefly: Cell motility using a Transwell insert. Type of assay: cell-based, human. The following applies: 400 μM paraquat and 20 μM PD98059 for 36 hr, FIG. 3B. The method, then:
Also, the cell motility was analyzed using a Transwell insert in ARPE-19 cells selectively treated with 400 μM paraquat and 20 μM PD98059 for 36 hr. As the migrated cells were stained with methylene blue it was confirmed by checking an image (FIG. 3B).

Where [4] appears, read: APRE-19 cells, 400 μM paraquat 24 hr, then 20 μM PD98059 24 hr, FIG. 2B.
The mark [5] stands for this setting: 400 μM paraquat and 20 μM PD98059 for 48 hr, FIG. 3A.
Where [6] appears, read: 400 μM paraquat and 10 μM gefitinib for 48 hr, FIG. 5C.

Molecules are shown by their SMILES. Where two headings read alike, the source gives them in different places.

As for `COc1cccc(-c2cc(=O)c3ccccc3o2)c1N` [PD98059], the “reorganization of K8 around the nucleus” value in assay [1] (APRE-19 and human-tissue-derived RPE cells, 400 μM paraquat and 20 μM PD98059 for 36 hr, FIG. 2C) is listed as “inhibited reorganization of K8 around the nucleus”. Also, in assay [2] (setting [4]), the “K8 phosphorylation due to oxidative stress (P-ERK and P-K8 expression levels)” value was “inhibited K8 phosphorylation”; the “expression of LC3 I/II, the autophagy marker” value is “not involved in the expression of LC3 I/II”. In addition, the “effect of inhibiting K8 phosphorylation due to oxidative stress (P-K8 expression level)” value in assay [2] (APRE-19 cells, 400 μM paraquat 24 hr, then 20 μM PD98059 24 hr, compared to 10 μM SP600125, FIG. 2A) is reported as “superior”. Further, in assay [3] (setting [5]), the epithelial-mesenchymal transition result is given as “reduce epithelial-mesenchymal transition”, the E-cadherin expression result is on record as “recovered E-cadherin lost” and the vimentin filaments entry is “inhibited an increase in vimentin filaments”. Moreover, in the assay with mouse retinal cells, the “degeneration of retinal cells (tight junction marker ZO-1)” value is given as “restored the degeneration of retinal cells”. Moreover, the cell motility result in the assay with ARPE-19 cells is “reduced increased cell motility”.

For the molecule `COc1cc2ncnc(Nc3ccc(F)c(Cl)c3)c2cc1OCCCN1CCOCC1` [gefitinib], in assay [1] (APRE-19 cells, 400 μM paraquat and 10 μM gefitinib for 36 hr, FIG. 5B), the “reorganization of K8 around the nucleus” value is listed as “inhibited reorganization of K8 around the nucleus”. For the same molecule, in assay [2], the “K8 phosphorylation due to oxidative stress (P-ERK and P-K8 expression levels)” value is reported as “inhibited phosphorylation of K8”. In assay [3] (setting [6]), the epithelial-mesenchymal transition result is recorded as “reduce epithelial-mesenchymal transition”, the E-cadherin expression result is “recovered E-cadherin lost” and the vimentin filaments entry was “inhibited the increase in vimentin filaments”.

These data come from US10857154B2, “Pharmaceutical composition containing keratin 8 phosphorylation inhibitor for preventing or treating macular degeneration, and method for screening macular degeneration medicine” (priority 2016, dated 2020).
